Where “and” joins values, the source holds several entries; their conditions need not be identical. Equal entries are not always repeated.
Assays:
C. elegans = details: NIC 100 μM; cited from earlier work
human lymphocytes = details: cited from earlier work
[1] = tested on: Drosophila melanogaster standard cross (ST), marker-heterozygous flies (mwh +/+ flr3); assay: Drosophila wing spot test; format: in vivo
[2] = tested on: Drosophila melanogaster high bioactivation cross (HB), marker-heterozygous flies (mwh +/+ flr3); assay: Drosophila wing spot test; format: in vivo
[3] = tested on: A549 human adenocarcinoma cells; details: cited from earlier work
[4] = NIC 0.456 mM + RES 0.0004 mM vs NIC 0.456 mM
[5] = NIC 0.456 mM + RES 0.0004 mM vs RES 0.0004 mM
[6] = NIC 0.456 mM + RES 0.011 mM vs RES 0.011 mM
[7] = NIC 11.4 mM + RES 0.0004 mM vs RES 0.0004 mM
[8] = NIC […] + RES 0.0004 mM vs NIC […]
[9] = NIC […] + RES 0.0004 mM vs RES 0.0004 mM
[10] = ST cross, URE 20 mM positive control, vs water
[11] = HB cross, URE 20 mM positive control, vs water

## CN1CCC[C@H]1c1cccnc1 [NIC, nicotine]
C. elegans
  Genotoxicity, comet assay (in words): genotoxic
Human lymphocytes
  Concentrations at which genotoxic in in vitro assays: > 500 nM
[1]; NIC 0.050 mM + RES 0.011 mM
  Mean mwh clone size class: 1.34
[1]; ST cross, NIC 11.4 mM
  Number of surviving flies: decreased
[1]; ST cross, NIC […] and 11.4 mM, increased small and total spots
  Genotoxicity (in words): genotoxic
[2]; HB cross, NIC 11.4 mM
  Lethality: lethal
[2]; NIC 0.456 mM
  Clone formation observed: 0.95 per 105 per cell Cells division
  Large single spots (>2 cells) per fly (number of spots): 0.07 (007)
  Mean mwh clone size class: 1.64
  Small single spots (1-2 cells) per fly (number of spots): 0.38 (038)
  Total spots per fly (number of spots): 0.48(048)
  Twin spots per fly (number of spots): 0.03 (003)
  mwh clones: 47
[2]; NIC 0.456 mM + RES 0.0004 mM
  Clone formation observed: 0.95 per 105 per cell Cells division and 0.90 per 105 per cell Cells division
  Large single spots (>2 cells) per fly (number of spots): 0.11 (007)
  Mean mwh clone size class: 2.21
  Small single spots (1-2 cells) per fly (number of spots): 0.36 (023)
  Total spots per fly (number of spots): 0.47 (030)
  Twin spots per fly (number of spots): 0.00 (000)
  mwh clones: 29
[2]; [4]
  Clone formation control connected: -0.05 per 105 per cell Cells division
  Large single spots statistical diagnosis: -
  Small single spots statistical diagnosis: -
  Total spots statistical diagnosis: -
  Twin spots statistical diagnosis: -
[2]; [5]
  Clone formation control connected: -0.25 per 105 per cell Cells division
  Large single spots statistical diagnosis: -
  Small single spots statistical diagnosis: -
  Total spots statistical diagnosis: -
  Twin spots statistical diagnosis: -
[2]; NIC 0.456 mM + RES 0.011 mM
  Large single spots (>2 cells) per fly (number of spots): 0.10 (006)
  Small single spots (1-2 cells) per fly (number of spots): 0.37 (022)
[2]; [6]
  Clone formation control connected: 0.20 per 105 per cell Cells division
  Small single spots statistical diagnosis: -
[2]; NIC 11.4 mM + RES 0.0004 mM
  Clone formation observed: 0.80 per 105 per cell Cells division
  Large single spots (>2 cells) per fly (number of spots): 0.00 (000)
  Mean mwh clone size class: 1.25
  Small single spots (1-2 cells) per fly (number of spots): 0.40 (004)
  Total spots per fly (number of spots): 0.40 (004)
  Twin spots per fly (number of spots): 0.00 (000)
  mwh clones: 04
[2]; [7]
  Clone formation control connected: -0.40 per 105 per cell Cells division
  Large single spots statistical diagnosis: -
  Small single spots statistical diagnosis: -
  Total spots statistical diagnosis: -
  Twin spots statistical diagnosis: -
[2]; [8]
  Large single spots statistical diagnosis: -
  Twin spots statistical diagnosis: -
[2]; [9]
  Large single spots statistical diagnosis: -
  Small single spots statistical diagnosis: -
  Total spots statistical diagnosis: -
  Twin spots statistical diagnosis: -

## CCOC(N)=O [URE, ethyl carbamate]
[1]; ST cross, URE 20 mM
  Clone formation per 105 cells per cell division, observed: 2.80
  Mean mvh clone size class: 1.45
  mwh clones: 38
[1]; [10]
  Small single spots (1-2 cells), Spots per Fly (Number of Spots): 1.21 (34) Spots per Fly
  Small single spots (1-2 cells), Statistical Diagnosis: +
  Total spots statistical diagnosis: +
  Total spots, Spots per Fly (Number of Spots): 1.36 (38) Spots per Fly
  Twin spots statistical diagnosis: -
  Twin spots, Spots per Fly (Number of Spots): 0.04 (1) Spots per Fly
  large single spots (>2 cells), Spots per Fly (Number of Spots): 0.11 (03) Spots per Fly
  large single spots (>2 cells), Statistical Diagnosis: -
[1]; ST cross, URE 20 mM, control water
  Clone formation per 105 cells per cell division, control connected: 1.65
[2]; HB cross, URE 20 mM
  Clone formation per 105 cells per cell division, observed: 6.35
  Mean mvh clone size class: 1.82
  mwh clones: 71
[2]; [11]
  Small single spots (1-2 cells), Spots per Fly (Number of Spots): 2.52 (58) Spots per Fly
  Small single spots (1-2 cells), Statistical Diagnosis: +
  Total spots statistical diagnosis: +
  Total spots, Spots per Fly (Number of Spots): 3.09 (71) Spots per Fly
  Twin spots statistical diagnosis: +
  Twin spots, Spots per Fly (Number of Spots): 0.17 (4) Spots per Fly
  large single spots (>2 cells), Spots per Fly (Number of Spots): 0.39 (09) Spots per Fly
  large single spots (>2 cells), Statistical Diagnosis: +
[2]; HB cross, URE 20 mM, control water
  Clone formation per 105 cells per cell division, control connected: 4.85

## Oc1ccc(/C=C/c2cc(O)cc(O)c2)cc1 [RES, Resveratrol]
[3]; RES 0.02 mM
  Effect on cell survival (in words): inhibited cell survival
[3]; RES 0.001 and 0.005 mM
  Effect on cell proliferation and viability (in words): promoted cell proliferation and viability
[1]; RES 0.0004 mM
  Clone formation observed: 1.15 per 105 per cell Cells division
  Large single spots (>2 cells) per fly (number of spots): 0.07 (004)
  Mean mwh clone size class: 1.64
  Small single spots (1-2 cells) per fly (number of spots): 0.53 (031)
  Total spots per fly (number of spots): 0.60 (035)
  Twin spots per fly (number of spots): 0.00 (0)
  mwh clones: 33
[1]; RES 0.011 mM
  Clone formation observed: 1.15 per 105 per cell Cells division and 1.35 per 105 per cell Cells division
  Large single spots (>2 cells) per fly (number of spots): 0.03 (002) and 0.05 (005)
  Mean mwh clone size class: 1.84 and 1.58
  Small single spots (1-2 cells) per fly (number of spots): 0.47 (027) and 0.58 (057)
  Total spots per fly (number of spots): 0.57 (033) and 0.67 (066)
  Twin spots per fly (number of spots): 0.07 (004) and 0.04 (004)
[2]; RES 0.0004 mM
  Clone formation observed: 1.20 per 105 per cell Cells division
  Large single spots (>2 cells) per fly (number of spots): 0.06 (005)
  Mean mwh clone size class: 1.84
  Small single spots (1-2 cells) per fly (number of spots): 0.52 (045)
  Total spots per fly (number of spots): 0.59 (051)
  Twin spots per fly (number of spots): 0.01 (001)
  mwh clones: 51
[2]; RES 0.011 mM
  Mean mwh clone size class: 1.43 and 1.56
  Twin spots per fly (number of spots): 0.02 (001)

Source: PMC9234589 (Heliyon, 2022)
